Laboratory results reported in ChEMBL document CHEMBL4359906, “Design and synthesis of new N-terminal fatty acid modified-antimicrobial peptide analogues with potent in vitro biological activity” (Eur J Med Chem, 2019).
≈ marks a conversion by molar mass, not a printed value. Calls of active or inactive are those of the source. No cut-off for these calls is given here.

How the values were obtained:
Escherichia coli [1] = assay: Antibacterial activity against Escherichia coli ATCC 25922 after 18 hrs by CLSI based broth microdilution method; type: functional; settings: ATCC 25922, 18 h
Escherichia coli [2] = assay: Antibacterial activity against Escherichia coli ATCC 43837 after 18 hrs by CLSI based broth microdilution method; type: functional; settings: ATCC 43837, 18 h
Klebsiella pneumoniae [3] = assay: Antibacterial activity against Klebsiella pneumoniae ATCC 700603 after 18 hrs by CLSI based broth microdilution method; type: functional; settings: Klebsiella pneumoniae, 700603, 18 h
Pseudomonas aeruginosa [4] = assay: Antibacterial activity against Pseudomonas aeruginosa ATCC 27853 after 18 hrs by CLSI based broth microdilution method; type: functional; settings: ATCC 27853, 18 h
Staphylococcus aureus [5] = assay: Antibacterial activity against Staphylococcus aureus ATCC 25923 after 18 hrs by CLSI based broth microdilution method; type: functional; settings: ATCC 25923, 18 h
Bacillus subtilis = assay: Antibacterial activity against Bacillus subtilis ATCC 23857 after 18 hrs by CLSI based broth microdilution method; type: functional; settings: ATCC 23857, 18 h
[6] = Selectivity index, ratio of MHC10 for human RBC to geometric mean of peptide MIC for gram positive bacteria; type: toxicity; settings: human red blood cells, read-out: Selectivity Index
[7] = Selectivity index, ratio of MHC10 for human RBC to geometric mean of peptide MIC for gram negative bacteria; type: toxicity; settings: human red blood cells, read-out: Selectivity Index
Escherichia coli [8] = assay: Potentiation of polymyxin B-induced antibacterial activity against Escherichia coli ATCC 25922 assessed as FICI after 18 hrs by checker board assay; type: functional
Klebsiella pneumoniae [9] = assay: Potentiation of polymyxin B-induced antibacterial activity against Klebsiella pneumoniae ATCC 700603 assessed as FICI after 18 hrs by checker board assay; type: functional
Pseudomonas aeruginosa [10] = assay: Potentiation of polymyxin B-induced antibacterial activity against Pseudomonas aeruginosa ATCC 27853 assessed as FICI after 18 hrs by checker board assay; type: functional
Escherichia coli [11] = assay: Potentiation of rifampicin-induced antibacterial activity against Escherichia coli ATCC 25922 assessed as FICI after 18 hrs by checker board assay; type: functional
Pseudomonas aeruginosa [12] = assay: Potentiation of rifampicin-induced antibacterial activity against Pseudomonas aeruginosa ATCC 27853 assessed as FICI after 18 hrs by checker board assay; type: functional
Escherichia coli [13] = assay: Antibacterial activity against Escherichia coli ATCC 25922 at 0.5 times MIC incubated for 18 hrs measured for 15 passages by CLSI based broth microdilution method; type: functional, organism-based
Escherichia coli [14] = assay: Antibiofilm activity against Escherichia coli ATCC 25922 after 24 hrs by crystal violet staining based assay; type: functional, organism-based
Staphylococcus aureus [15] = assay: Antibiofilm activity against Staphylococcus aureus ATCC 25923 after 24 hrs by crystal violet staining based assay; type: functional, organism-based
Pseudomonas aeruginosa [16] = assay: Antibiofilm activity against Pseudomonas aeruginosa ATCC 27853 after 24 hrs by crystal violet staining based assay; type: functional, organism-based
Escherichia coli [17] = assay: Antibiofilm activity against Escherichia coli ATCC 25922 at 2 times MIC after 24 hrs by crystal violet staining based assay; type: functional, organism-based
Escherichia coli [18] = assay: Antimicrobial activity against Escherichia coli ATCC 25922 at 1 mM preincubated for 6 hrs in presence of 2000 ug/ml trypsin and measured after 18 hrs by microplate reader analysis; type: functional, organism-based
Escherichia coli [19] = assay: Ratio of MIC for Escherichia coli ATCC 25922 preincubated for 1 hr in presence of 10% mouse serum and measured after 18 hrs to MIC for antibacterial activity against Escherichia coli ATCC 25922 after 18 hrs; type: functional
Escherichia coli [20] = assay: Ratio of MIC for Escherichia coli ATCC 25922 preincubated for 6 hrs in presence of 10% mouse serum and measured after 18 hrs to MIC for antibacterial activity against Escherichia coli ATCC 25922 after 18 hrs; type: functional
Escherichia coli [21] = assay: Induction of inner membrane permeabilization in Escherichia coli ATCC 43837 assessed as increase in ONPG release at 4 times of MIC by ONPG dye based assay; type: organism-based
Escherichia coli [22] = assay: Disruption of membrane integrity in Escherichia coli ATCC 25922 assessed as membrane damage by measuring PI fluorescence at 4 times of MIC incubated for 1 hr by PI dye based flow cytometric analysis (reference value: 1.35%); type: functional
Escherichia coli [23] = assay: Disruption of membrane integrity in Escherichia coli ATCC 25922 assessed as membrane damage by measuring PI fluorescence at 2 times of MIC incubated for 1 hr by PI dye based flow cytometric analysis (reference value: 1.35%); type: functional
Escherichia coli [24] = assay: Disruption of membrane integrity in Escherichia coli ATCC 25922 assessed as membrane damage by measuring PI fluorescence incubated for 1 hr by PI dye based flow cytometric analysis; type: functional, organism-based
Escherichia coli [25] = assay: Induction of membrane disruption in Escherichia coli ATCC 25922 assessed as rough membrane surface at 4 times of MIC after 2 hrs by SEM analysis; type: functional, organism-based
Escherichia coli [26] = assay: Induction of membrane disruption in Escherichia coli ATCC 25922 assessed as corrugated membrane surface at 4 times of MIC after 2 hrs by SEM analysis; type: functional, organism-based
Escherichia coli [27] = assay: Induction of membrane disruption in Escherichia coli ATCC 25922 assessed as degeneration in membrane at 4 times of MIC after 2 hrs by SEM analysis; type: functional, organism-based
DNA = assay: Binding affinity to Escherichia coli ATCC 25922 genomic DNA after 30 mins by agarose gel electrophoresis; type: nucleic-acid assay
Escherichia coli [28] = assay: Ratio of antibacterial activity against Escherichia coli ATCC 25922 in presence of NaCl to antibacterial activity against Escherichia coli ATCC 25922; type: functional
Escherichia coli [29] = assay: Ratio of antibacterial activity against Escherichia coli ATCC 25922 in presence of KCl to antibacterial activity against Escherichia coli ATCC 25922; type: functional
Escherichia coli [30] = assay: Ratio of antibacterial activity against Escherichia coli ATCC 25922 in presence of MgCl2 to antibacterial activity against Escherichia coli ATCC 25922; type: functional
Escherichia coli [31] = assay: Ratio of antibacterial activity against Escherichia coli ATCC 25922 in presence of FeCl3 to antibacterial activity against Escherichia coli ATCC 25922; type: functional
Staphylococcus aureus [32] = assay: Ratio of antibacterial activity against Staphylococcus aureus ATCC 25923 in presence of KCl to antibacterial activity against Staphylococcus aureus ATCC 25923; type: functional
Staphylococcus aureus [33] = assay: Ratio of antibacterial activity against Staphylococcus aureus ATCC 25923 in presence of MgCl2 to antibacterial activity against Staphylococcus aureus ATCC 25923; type: functional
Staphylococcus aureus [34] = assay: Ratio of antibacterial activity against Staphylococcus aureus ATCC 25923 in presence of FeCl3 to antibacterial activity against Staphylococcus aureus ATCC 25923; type: functional
Escherichia coli [35] = assay: Induction of membrane disruption in Escherichia coli ATCC 25922 assessed as fracture in membrane at 4 times of MIC after 2 hrs by SEM analysis; type: functional, organism-based
Escherichia coli [36] = assay: Induction of ROS generation in Escherichia coli ATCC 25922; type: functional, organism-based

CCCCCCCCCC(=O)NCC(=O)N[C@@H](CC(C)C)C(=O)N[C@@H](CC(C)C)C(=O)N[C@H](CCCCN)C(=O)N[C@@H](CCCNC(=N)N)C(=O)N[C@H](C(=O)N[C@H](CCCCN)C(=O)N[C@H](C(=O)N[C@@H](CC(C)C)C(=O)N[C@@H](CC(C)C)C(N)=O)[C@@H](C)O)[C@@H](C)CC
MIC (Escherichia coli [1]): 16 µM (≈ 20.9 µg/mL)
MIC (Escherichia coli [2]): 8 µM (≈ 10.5 µg/mL)
MIC (Klebsiella pneumoniae [3]): 16 µM (≈ 20.9 µg/mL)
MIC (Pseudomonas aeruginosa [4]): 8 µM (≈ 10.5 µg/mL)
MIC (Staphylococcus aureus [5]): 8 µM (≈ 10.5 µg/mL)
MIC (Bacillus subtilis): 8 µM (≈ 10.5 µg/mL)
selectivity ratio [6]: 8
selectivity ratio [7]: 5.33
fractional inhibitory concentration index (FICI) (Escherichia coli [8]): 0.3125
fractional inhibitory concentration index (FICI) (Klebsiella pneumoniae [9]): 0.3125
fractional inhibitory concentration index (FICI) (Pseudomonas aeruginosa [10]): 0.125
fractional inhibitory concentration index (FICI) (Escherichia coli [11]): 0.1875
fractional inhibitory concentration index (FICI) (Pseudomonas aeruginosa [12]): 0.3125
Activity (Escherichia coli [13]): Active
inhibition (Escherichia coli [14]): Dose-dependent effect
inhibition (Staphylococcus aureus [15]): Dose-dependent effect
inhibition (Pseudomonas aeruginosa [16]): Dose-dependent effect
inhibition (Escherichia coli [17]): inactive
Activity (Escherichia coli [18]): Active
Ratio (Escherichia coli [19]): 1
Ratio (Escherichia coli [20]): 1
Activity (Escherichia coli [21]): Active
Activity (Escherichia coli [22]): 75.9%
Activity (Escherichia coli [23]): 49.6%
Activity (Escherichia coli [24]): Dose-dependent effect
Activity (Escherichia coli [25]): Active
Activity (Escherichia coli [26]): Active
Activity (Escherichia coli [27]): Active
Activity (DNA): Dose-dependent effect
Ratio (Escherichia coli [28]): 2 - 4
Ratio (Escherichia coli [29]): 2 - 4
Ratio (Escherichia coli [30]): 2 - 4
Ratio (Escherichia coli [31]): 2 - 4
Ratio (Staphylococcus aureus [32]): 2 - 4
Ratio (Staphylococcus aureus [33]): 2 - 4
Ratio (Staphylococcus aureus [34]): 2 - 4
Activity (Escherichia coli [35]): Active
Activity (Escherichia coli [36]): inactive
